In patent publication US20260053778A1, “USE OF NOVEL PPAR ACTIVITY MODULATOR FOR PREVENTION, AMELIORATION OR TREATMENT OF DEGENERATIVE BRAIN DISEASES” (POSTECH RESEARCH AND BUSINESS DEVELOPMENT FOUNDATION, priority 2022, published 2026):

Columns and labels:
[1] = target: T1, PPARα (Homo sapiens, UniProt Q07869); assay: GAL4-transactivation assay in HEK293A cells, PPARα; assay type: cell-based; conditions: GAL4 reporter, 24 h, compared with WY14643
T1 construct: expressed in transfected cells; host or cells: HEK293A
T1 sequence (Q07869 1-468): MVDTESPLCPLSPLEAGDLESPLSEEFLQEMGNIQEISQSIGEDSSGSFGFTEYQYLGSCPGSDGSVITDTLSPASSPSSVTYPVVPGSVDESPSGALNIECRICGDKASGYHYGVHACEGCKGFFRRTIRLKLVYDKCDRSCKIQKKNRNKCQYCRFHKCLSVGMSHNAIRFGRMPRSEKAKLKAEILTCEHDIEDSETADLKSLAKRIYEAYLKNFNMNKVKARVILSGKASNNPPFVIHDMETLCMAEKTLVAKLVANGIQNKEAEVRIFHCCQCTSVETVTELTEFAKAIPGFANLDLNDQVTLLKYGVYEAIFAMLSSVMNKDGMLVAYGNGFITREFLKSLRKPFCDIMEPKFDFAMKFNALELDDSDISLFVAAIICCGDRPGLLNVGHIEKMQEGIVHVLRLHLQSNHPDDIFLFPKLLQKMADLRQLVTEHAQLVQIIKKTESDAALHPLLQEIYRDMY
Experimental: (§1) A GAL4-transactivation assay experiment was performed to determine whether the drug was bound to the PPAR ligand binding site. HEK293A cells were transfected with GAL4-reporter plasmid and pGL4.74 (Promega, Madison, WI, USA) as an internal standard via electroporation using the Neon Transfection System (Invitrogen, Carlsbad, CA, USA). All vectors were kindly provided by Professor Kanno Yuichiro, Toho University, Japan. After overnight culture, cells were treated with DTMB and each positive control compound for 24 h. Cells were then harvested, resuspended in luciferase lysis buffer (Promega), and incubated on ice for 10 min. Cell debris was removed by centrifugation at 20,000×g, 4° C. for 10 min, and the supernatant was used for the luciferase assay. Luciferase activity was measured using the Dual Luciferase Reporter Assay System (Promega) according to the manufacturer's instructions. In the measurement experiment, firefly luciferase activity was normalized to Renilla luciferase activity. To investigate the concentration-dependent effect of DTMB drug, EC50 values were measured by treating various concentrations of DTMB.

[2] = target: T2, HIS-tagged recombinant PPAR γ protein (Homo sapiens, UniProt P37231); assay: CNBr-drug and protein binding experiment, PPARγ; conditions: Western blotting after 24 h incubation
T2 sequence (P37231 238-503 limits assumed): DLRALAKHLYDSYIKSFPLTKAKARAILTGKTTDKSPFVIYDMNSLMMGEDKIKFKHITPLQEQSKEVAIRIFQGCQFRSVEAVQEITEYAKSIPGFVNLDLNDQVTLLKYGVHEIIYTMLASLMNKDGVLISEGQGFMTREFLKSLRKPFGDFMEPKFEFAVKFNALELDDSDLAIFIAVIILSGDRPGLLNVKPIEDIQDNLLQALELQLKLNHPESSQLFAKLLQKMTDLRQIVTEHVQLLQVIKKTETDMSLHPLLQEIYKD
Experimental: Since the computer prediction program predicted that DTMB binds to PPAR transcription factors, CNBr-drug and protein binding experiments were conducted to confirm whether DTMB actually binds to PPAR. To determine the actual degree of drug-protein binding, the reaction of the protein of the PPAR-α, β/δ, γ ligand-binding portion with the DTMB drug-bound CNBr beads was confirmed through Western blotting.
Specifically, CNBr Sepharose 4B beads were prepared and activated according to the instructions. 100 mg of CNBr-activated Sepharose 4B beads were incubated with drugs or DMSO at 4° C. for 18 h. The drug-bound beads reacted with HIS-tagged recombinant PPAR α, β/δ, and γ proteins. After 24 h of incubation, Western blotting experiments were performed to confirm whether the recombinant proteins bound to the drug-bound beads.

[3] = tested on: primary microglia; assay: Quantitative PCR of inflammation genes in primary microglia; assay type: cell-based, mouse; conditions: qPCR
Text: In addition, the gene expression levels of Il-6. Il-1 #, and iNOS, which are NF-κB target genes related to chronic inflammation, and Arg-1, an anti-inflammatory marker, were confirmed by quantitative PCR (qPCR) analysis in primary microglia.
Total RNA was isolated using TRI reagent (Molecular Research Center, Cincinnati, OH, USA). RNA was reverse transcribed using the ImProm-II Reverse Transcription System (Promega) according to the manufacturer's instructions. For detection and quantification, the StepOnePlus Real-Time PCR System (Applied Biosystems, Foster City, CA, USA) was used with FastStart Universal SYBR Green Master (Roche, Basel, Switzerland). Real-time qPCR data were analyzed using the comparative CT method.

[4] = tested on: 5×FAD Alzheimer's dementia-induced mice; assay: qPCR of proinflammatory cytokines in brain tissue; assay type: in vivo, mouse; conditions: 5×FAD mice
Text: The gene expression levels of proinflammatory cytokines and related enzymes (II-1B, Il-6, and iNOS) in the brain tissues of the DTMB-administered and non-administered groups of 5×FAD Alzheimer's dementia-induced mice were confirmed by qPCR.

[5] = target: T3, PPARγ (Homo sapiens, UniProt P37231); assay: GAL4-transactivation assay in HEK293A cells, PPARγ; assay type: cell-based; conditions: GAL4 reporter, 24 h, compared with rosiglitazone
T3 construct: expressed in transfected cells; host or cells: HEK293A
T3 sequence (P37231 1-505): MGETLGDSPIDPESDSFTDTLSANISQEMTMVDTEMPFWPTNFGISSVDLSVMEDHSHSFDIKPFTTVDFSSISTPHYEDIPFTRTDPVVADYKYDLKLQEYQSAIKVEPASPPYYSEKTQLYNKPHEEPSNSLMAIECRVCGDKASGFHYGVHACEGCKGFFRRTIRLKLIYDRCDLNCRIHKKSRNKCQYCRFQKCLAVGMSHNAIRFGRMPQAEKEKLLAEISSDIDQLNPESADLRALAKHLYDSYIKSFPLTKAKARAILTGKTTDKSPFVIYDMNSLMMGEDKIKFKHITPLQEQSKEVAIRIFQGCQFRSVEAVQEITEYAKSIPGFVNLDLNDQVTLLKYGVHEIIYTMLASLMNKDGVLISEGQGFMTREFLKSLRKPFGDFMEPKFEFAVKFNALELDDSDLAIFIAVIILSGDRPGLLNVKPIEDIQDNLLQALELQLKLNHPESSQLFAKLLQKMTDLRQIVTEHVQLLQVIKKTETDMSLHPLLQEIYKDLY
Experimental: as §1

SMILES: COc1ccc(-c2cc(=O)oc3c(C)c(OC(=O)[C@H](Cc4c[nH]c5ccccc45)NC(=O)OC(C)(C)C)ccc23)cc1 [DTMB, [4-(4-Methoxyphenyl)-8-methyl-2-oxochromen-7-yl](2S)-3-(1H-indol-3-yl)-2-[(2-methylpropan-2-yl)oxycarbonylamino]propanoate]
- PPARα activation versus positive control [1]: activated at a lower concentration than WY14643
- Binding of PPARγ ligand-binding protein to drug-bound CNBr beads [2]: binds to all subtypes of PPAR
- Expression of Il-1β [3]: decreased
- Expression of Il-6 [3]: decreased
- Expression of anti-inflammatory marker Arg-1 [3]: induced
- Expression of iNOS [3]: decreased
- Expression level of Il-1β [4]: decreased
- Expression level of Il-6 [4]: decreased
- Expression level of iNOS [4]: decreased
- PPARγ activation versus positive control [5]: activated at a slightly higher concentration than GW501516 and rosiglitazone, respectively
